In patent US12534439B2, “Xanthohumol derivatives and methods for making and using” (Oregon State University, priority 2021, dated 2026):

Tests used:
Type in all cases: in vivo
[1] = system: HFD-fed C57BL/6J mice; experiment: HFD feeding study: body weight, glucose tolerance test, plasma metabolic parameters; conditions: for Final body weight: 11 weeks of HFD ± test compound; for Weight gain over the feeding period versus control HFD-fed mice: XP 30, XN 60 mg/kg body weight/day in HFD; for Glucose tolerance test (GTT) versus control: after 4 weeks of feeding, 6 hours fasting, 1.5 g/kg D-glucose i.p.; for Initial body weight: male mice, HFD ± test compound; for IL-6 / Insulin / MCP1 / PCSK9: plasma
Description: Animal Studies. All animal experiments were performed in accordance with institutional and National Health and Medical Research Council guidelines. The experimental protocol was approved by the Institutional Animal Care and Use Committee at Oregon State University and the studies were carried out in accordance with the approved protocol. Nine-week-old wildtype male C57BL/6J mice were obtained from Jackson Laboratory (Bar Harbor, ME, USA). Mice were single-housed in ventilated cages under a 12-12 h light-dark cycle and fed a HFD (Dyets Inc., Bethlehem, PA, USA) containing 60, 20, and 20% total calories from fat, carbohydrate, and protein, respectively. XN (99% purity, Hopsteiner Inc., New York, NY, USA) and XP (99% purity) were mixed into the diet at a concentration of 0.066% for XN and 0.033% for XP to reach respective doses of 60 mg/kg body weight/day and 30 mg/kg body weight/day. Studies included eight HFD-fed mice, eight XP-treated mice, and four XN-treated mice; food intake and body weights were recorded weekly. At week 4, glucose tolerance was tested after 6 hours fasting. Following intraperitoneal bolus injection of 1.5 g/kg of D-glucose, blood glucose levels were measured at 0, 15, 30, 60, and 120 minures using a One Touch UltraMini glucometer (LifeScan Inc., Milpitas, CA, USA). At the end of 11 weeks of feeding, mice were euthanized, and blood, liver, BAT, epididymal WAT, and cortex samples were collected for analyses.
(§1) Tris (pH=7.8) per gram of tissue. The homogenates were centrifuged at 10 000 g for 15 minutes at 4° C., and the supernatants were tested for ALT and AST activity using colorimetric assay kits purchased from Cayman Chemical (Ann Arbor, MI, USA). Triglycerides and total cholesterol were analyzed with commercially available kits (Cayman Chemical, Ann Arbor, MI, USA). Plasma glucose at week 11 was measured with a colorimetric assay, and plasma insulin, MCP-1, IL-6, and PCSK9 were analyzed by ELISA kits purchased from Abcam (Cambridge, UK).

[2] = system: HFD-fed C57BL/6J mice; experiment: AST and ALT enzymatic activities in liver homogenates; conditions: for ALT / AST: 11 weeks, mean ± SEM
Description: Measure of Metabolic Parameters and Liver Enzymes. ALT and AST enzymatic activities and liver samples (n=4-8 per group) were homogenized in 10 mL of 100 mM
as §1

[3] = system: HFD-fed C57BL/6J mice; experiment: Metabolic cages: indirect calorimetry, energy expenditure, motor activity; conditions: for All movements (direct locomotion and fine movements) versus control: three dark and two light cycles; for Mean respiratory exchange ratio (RER) versus control: week 6; for Increase of mean energy expenditure (EE): week 6, normalized on body weight, dark and light cycles
Description: Measure of Metabolic Activity. Metabolic determinations were performed at week 6, with four mice from each treatment group housed in Promethion metabolic cages (Sable Systems, Las Vegas, NV, USA). The indirect calorimetry system consists of metabolic cages identical to regular cages with bedding, each equipped with food hoppers connected to load cells for food intake monitoring. Prior to data collection, all mice were acclimated to the cages for 8 hours. A standard 12 hours light/dark cycle was maintained throughout the calorimetry studies, and data was collected over three dark cycles and two light cycles. Metabolic measurements such as EE and respiratory exchange […] (calculated from the ratio of CO2 volume produced and O2 volume consumed) were measured. Motor activity and food intake were also recorded. JC-1 Mitochondrial Membrane Potential Assay. C2Cl2 cells were seeded in 96-well plates at 1×10^4 cells/mL. After 24 hours, the culture medium was replaced with fresh medium containing carbonyl cyanide p-(trifluoromethoxy) phenylhydrazone (FCCP) from Sigma-Aldrich (St Louis, MO, USA), XP, XN, or DMSO vehicle. Cells were incubated in the presence of the treatments for 1 h and 5,5′,6,6′-tetrachloro-1,1′,3,3′-tetraethylbenzimidazolylcarbocyanine iodide (JC-1) dye was added to each well following the manufacturer's protocol (Cayman Chemical, Ann Arbor, MI, USA). JC-1 aggregates were detected with excitation and emission wavelengths of 540 and 570 nm. JC-1 monomers were detected with excitation and emission wavelengths of 485 and 535 nm on a BioTek Synergy HT plate reader.

SMILES	Plasma concentrations of PCSK9 versus control ([1]; 11 weeks)	Final body weight ([1]; mean ± SEM) [g]	Fasting glucose ([1]; 11 weeks, mean ± SEM) [mg/dL]	Plasma cholesterol ([1]; 11 weeks, mean ± SEM) [mg/dL]	Weight gain over the feeding period versus control HFD-fed mice [1]	Glucose tolerance test (GTT) versus control [1]	Initial body weight ([1]; mean ± SEM) [g]	IL-6 ([1]; 11 weeks, mean ± SEM) [pg/mL]	Insulin ([1]; 11 weeks, mean ± SEM) [μU/mL]	MCP1 ([1]; 11 weeks, mean ± SEM) [pg/mL]	PCSK9 ([1]; 11 weeks, mean ± SEM) [ng/mL]	AST and ALT test results versus control [2]	ALT [2] [U/mL]	AST [2] [U/mL]	All movements (direct locomotion and fine movements) versus control [3]	Mean respiratory exchange ratio (RER) versus control [3]	Increase of mean energy expenditure (EE) ([3]; versus control)	other results
COc1cc(O)c(CC=C(C)C)c(O)c1C(=O)/C=C/c1ccc(O)cc1 [XN, xanthohumol]	not affected	44.25 ± 1.97	142.67 ± 6.29	170.88 ± 6.76	no change in weight	no effect on glucose clearance	26.37 ± 0.22	5.03 ± 3.3	71.17 ± 34.38	57.34 ± 15.74	215 ± 35.12	did not change substantially	0.22 ± 0.06	0.16 ± 0.03	increased	increased	4-8%	Plasma TGs versus control ([1]; 11 weeks): increase; HOMA-IR ([1]; 11 weeks, mean ± SEM): 26.76 ± 13.47; Locomotor movement increased versus control ([3]; p=0.06): not
COc1cc(O)c(CC=C(C)C)c(O)c1-c1cc(-c2ccc(O)cc2)n(C)n1 [XP, 4-(5-(4-hydroxyphenyl)-1-methyl-1H-pyrazol-3-yl)-5-methoxy-2-(3-methylbut-2-en-1-yl)benzene-1,3-diol]	not affected	37.87 ± 1.72	128.98 ± 7.18	160.47 ± 4.73	gained significantly less weight	improved glucose tolerance	23.66 ± 0.70	5.78 ± 2.04	34.36 ± 3.73	45.00 ± 4.68	217.166 ± 26.88	did not change substantially	0.38 ± 0.07	0.30 ± 0.06	increased	increased	up to 27%	IL-6 plasma level versus control ([1]; 11 weeks): not significantly different; MCP-1/CCL2 plasma levels versus control ([1]; 11 weeks): not decreased; Triglycerides (TG) and total cholesterol concentrations in plasma versus control ([1]; 11 weeks): no changes; Plasma TG ([1]; 11 weeks, mean ± SEM): 81.81 ± 4.33 mg/dL; Decrease of HOMA-IR (insulin resistance score) ([1]; after 11 weeks of feeding, versus control): 77.9%; Fasting glucose a ([1]; measured at 4 weeks, mean ± SEM): 143.62 ± 7.54 mg/dL; Decrease in liver enzymes (AST, ALT) ([2]; versus control, not significant): 30%; Percent ambulatory time versus control ([3]; mouse, in vivo): increased; Increase of locomotor movement (direct locomotion) ([3]; versus control): 75-135%; Increase of mean energy expenditure (EE) ([3]; versus control, listed as 4-(5-(4-hydroxyphenyl)-1-methyl-1h-pyrazol-3-yl)-5-methoxy-2-(3-methylbut-2-en-1)): 20-27%
